Experimental data reported in US11052092B2, “N-{[2-(piperidin-1-yl)phenyl](phenyl)methyl}-2-(3-oxo-3,4-dihydro-2H-1,4-benzoxazin-7-yl)acetamide derivatives and related compounds as ROR-gamma modulators for treating autoimmune diseases” (Genfit, priority 2017, dated 2021).

These compounds were tested against T1, human RORγt (Homo sapiens, UniProt P51449) (assay: RORE Luciferase/RORγt transactivation assay). Settings: COS-7 cells transfected with human IL-17 promoter luciferase reporter and RORγt plasmid; 20 h with compound; read-out: IC50, RORγt activity inhibition.
T1 construct: the full-length cDNA of human RORγt; expressed in transfected cells; host or cells: COS-7 (monkey kidney)
T1 sequence (P51449 1-497 isoform P51449-2): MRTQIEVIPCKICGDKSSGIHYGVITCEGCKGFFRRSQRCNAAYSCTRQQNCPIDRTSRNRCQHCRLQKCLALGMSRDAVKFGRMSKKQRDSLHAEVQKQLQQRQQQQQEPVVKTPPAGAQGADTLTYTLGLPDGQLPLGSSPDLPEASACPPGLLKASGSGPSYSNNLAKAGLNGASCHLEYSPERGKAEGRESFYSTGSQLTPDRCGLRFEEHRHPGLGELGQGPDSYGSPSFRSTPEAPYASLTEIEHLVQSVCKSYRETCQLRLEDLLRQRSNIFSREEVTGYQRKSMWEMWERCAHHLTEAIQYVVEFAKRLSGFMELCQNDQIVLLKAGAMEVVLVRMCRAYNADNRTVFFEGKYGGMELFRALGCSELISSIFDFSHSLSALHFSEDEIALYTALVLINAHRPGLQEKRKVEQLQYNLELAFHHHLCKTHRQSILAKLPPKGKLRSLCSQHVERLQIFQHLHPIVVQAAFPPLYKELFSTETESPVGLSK
Assay type: cell-based
Experimental: It is well known that RORγ binds to a conserved non-coding sequence (CNS) enhancer element in the IL-17 promoter.
Culture medium was changed every 2 days.
The 4.3 Kb human IL-17 promoter containing the RORγ-specific CNS enhancer element was PCR amplified from human genomic DNA and cloned into a pGL3-TKLuc2Cp reporter plasmid.
The luciferase reporter plasmid and the RORγt overexpression plasmid were transfected into COS-7 cell line using 4 μLJetPEI™/μg of DNA. Briefly, 150 ng of DNA (ration ½ between RORE-Tk Luc2Cp and cDNA RORγt or the empty vector for the negative control) was served to transfect adherent COS-7 cells in a […] culture flask, in complete medium (see cos-7 cell line culture).
Cells were then detached (using trypsin) and washed by centrifugation at 300 g for 10 minutes. Cell pellet was resuspended in serum free/phenol red free DMEM and seeded in 384 well plates at a density of 10000 cells/well and then incubated for 4 h at 37° C.
Compounds were dissolved in 100% DMSO to obtain 10 mM stock solutions. For each compound, test concentrations were diluted in serum free/phenol red free DMEM using the Genesis Freedom 200™ (TECAN) and added to the cells to obtain a 0.3% DMSO final concentration (in a final volume of 40 μL per well).
The luciferase activity was then measured with 40 μL/well steady-Glo Luciferase assay system (Promega, Madison, Wis.) and after incubation at room temperature for 30 minutes. The luminescence was estimated using the Ultra384 reader (TECAN). Data were collected and analyzed using GraphPad Prism software (GraphPad Software V5.02, San Diego Calif. USA). IC50 in μM and Emax in % were reported for each compound.

IC50 [nM] | SMILES
< 10 | Cc1ccc(C(NC(=O)C2(c3ccc4c(c3)CS(=O)(=O)N4CC3CCOCC3)CC2)c2ccc(C)o2)c(C)c1 (centres unmarked) [Cpd. 157, N-[(2,4-dimethylphenyl)(5-methylfuran-2-yl)methyl]-1-[1-(oxan-4-ylmethyl)-2,2-dioxo-1,3-dihydro-2,1-benzothiazol-5-yl]cyclopropane-1-carboxamide]
10 to 100 | Cc1ccc(C(NC(=O)C2(c3ccc4c(c3)OCC(=O)N4)CC2)c2cccc(C)n2)c(C)c1 (centres unmarked) [Cpd. 136, N-[(2,4-dimethylphenyl)(6-methylpyridin-2-yl)methyl]-1-(3-oxo-3,4-dihydro-2H-1,4-benzoxazin-7-yl)cyclopropane-1-carboxamide]
10 to 100 | Cc1ccc(C(NC(=O)C2(c3ccc4[nH]cc(CCO)c4c3)CC2)c2ccc(C)o2)c(N2CCCCC2)c1 (centres unmarked) [Cpd. 66, 1-[3-(2-hydroxyethyl)-1H-indol-5-yl]-N-{[4-methyl-2-(piperidin-1-yl)phenyl](5-methylfuran-2-yl)methyl}cyclopropane-1-carboxamide]
< 10 | Cc1ccc(C(NC(=O)C2(c3ccc4c(c3)OCC(=O)N4)CC2)c2ccc(C)o2)c(Br)c1 (centres unmarked) [Cpd. 135, N-[(2-bromo-4-methylphenyl)(5-methylfuran-2-yl)methyl]-1-(3-oxo-3,4-dihydro-2H-1,4-benzoxazin-7-yl)cyclopropane-1-carboxamide]
100 to 1000 | Cc1ccc(C(NC(=O)Cc2ccc3c(c2)CCC3=O)c2ccc(C)o2)c(N2CCCCC2)c1 (centres unmarked) [Cpd. 51, N-{[4-methyl-2-(piperidin-1-yl)phenyl](5-methylfuran-2-yl)methyl}-2-(1-oxo-2,3-dihydro-1H-inden-5-yl)acetamide]
10 to 100 | Cc1ccc(C(NC(=O)Cc2ccc3c(ccn3CC3CCOCC3)c2)c2ccc(C)o2)c(N2CCCCC2)c1 (centres unmarked) [Cpd. 113, N-{[4-methyl-2-(piperidin-1-yl)phenyl](5-methylfuran-2-yl)methyl}-2-[1-(oxan-4-ylmethyl)-1H-indol-5-yl]acetamide]
1000 to 10000 | O=C1COc2ccc(CC(=O)NC(c3ccccc3)c3ccccc3N3CCCCC3)cc2N1 (centres unmarked) [Cpd. 13, 2-(3-oxo-3,4-dihydro-2H-1,4-benzoxazin-6-yl)-N-{phenyl[2-(piperidin-1-yl)phenyl]methyl}acetamide]
< 10 | Cc1ccc(C(NC(=O)C2(c3ccc4c(c3)OCC(=O)N4)CC2)c2ccc(Cl)o2)c(C)c1 (centres unmarked) [Cpd. 134, N-[(5-chlorofuran-2-yl)(2,4-dimethylphenyl)methyl]-1-(3-oxo-3,4-dihydro-2H-1,4-benzoxazin-7-yl)cyclopropane-1-carboxamide]
100 to 1000 | Cc1ccc(C(NC(=O)C2(c3ccc4c(c3)OCO4)CC2)c2ccc(C)o2)c(Br)c1 (centres unmarked) [Cpd. 161, 1-(2H-1,3-benzodioxol-5-yl)-N-[(2-bromo-4-methylphenyl)(5-methylfuran-2-yl)methyl]cyclopropane-1-carboxamide]
10 to 100 | Cc1ccc(C(NC(=O)C2(c3ccc4c(c3)OCC(=O)N4)CC2)c2ccco2)c(C)c1 (centres unmarked) [Cpd. 139, N-[(2,4-dimethylphenyl)(furan-2-yl)methyl]-1-(3-oxo-3,4-dihydro-2H-1,4-benzoxazin-7-yl)cyclopropane-1-carboxamide]
10 to 100 | Cc1ccc(C(NC(=O)C2(c3ccc4c(c3)OCO4)CC2)c2ccc(C)o2)c(C)c1 (centres unmarked) [Cpd. 137, 1-(2H-1,3-benzodioxol-5-yl)-N-[(2,4-dimethylphenyl)(5-methylfuran-2-yl)methyl]cyclopropane-1-carboxamide]
10 to 100 | Cc1ccc(C(NC(=O)C2(c3ccc4c(c3)CN(S(C)(=O)=O)C4)CC2)c2ccc(C)o2)c(C)c1 (centres unmarked) [Cpd. 65, N-[(2,4-dimethylphenyl)(5-methylfuran-2-yl)methyl]-1-(2-methanesulfonyl-2,3-dihydro-1H-isoindol-5-yl)cyclopropane-1-carboxamide]
1000 to 10000 | O=C1Cc2cc(CC(=O)NC(c3ccccc3)c3ccccc3N3CCOCC3)ccc2N1 (centres unmarked) [Cpd. 17, N-{[2-(morpholin-4-yl)phenyl](phenyl)methyl}-2-(2-oxo-2,3-dihydro-1H-indol-5-yl)acetamide]
100 to 1000 | Cc1cnc(C(NC(=O)C2(c3ccc4c(c3)OCS(=O)(=O)N4)CC2)c2ccc(C)o2)c(C)c1 (centres unmarked) [Cpd. 153, N-[(3,5-dimethylpyridin-2-yl)(5-methylfuran-2-yl)methyl]-1-(2,2-dioxo-1,3-dihydro-4,2,1-benzoxathiazin-6-yl)cyclopropane-1-carboxamide]
10 to 100 | Cc1ccc(C(NC(=O)C2(c3ccc4c(c3)CS(=O)(=O)N4C)CC2)c2ccc(C)o2)c(C)c1 (centres unmarked) [Cpd. 70, N-[(2,4-dimethylphenyl)(5-methylfuran-2-yl)methyl]-1-(1-methyl-2,2-dioxo-1,3-dihydro-2,1-benzothiazol-5-yl)cyclopropane-1-carboxamide]
10 to 100 | Cc1ccc(C(NC(=O)Cc2ccc3c(c2)C(O)CC3)c2ccc(C)o2)c(N2CCCCC2)c1 (centres unmarked) [Cpd. 85, 2-(3-hydroxy-2,3-dihydro-1H-inden-5-yl)-N-{[4-methyl-2-(piperidin-1-yl)phenyl](5-methylfuran-2-yl)methyl}acetamide]
100 to 1000 | Cc1ccc(C(NC(=O)C2(c3ccc4c(c3)CCC4=O)CC2)c2ccc(C)o2)c(C)c1 (centres unmarked) [Cpd. 141, N-[(2,4-dimethylphenyl)(5-methylfuran-2-yl)methyl]-1-(1-oxo-2,3-dihydro-1H-inden-5-yl)cyclopropane-1-carboxamide]
10 to 100 | Cc1ccc(C(NC(=O)C2(c3ccc4c(c3)OCS(=O)(=O)N4)CC2)c2ccc(Cl)o2)c(C)c1 (centres unmarked) [Cpd. 149, N-[(5-chlorofuran-2-yl)(2,4-dimethylphenyl)methyl]-1-(2,2-dioxo-1,3-dihydro-4,2,1-benzoxathiazin-6-yl)cyclopropane-1-carboxamide]
10 to 100 | Cc1ccc(C(NC(=O)C2(c3ccc4c(c3)CCC4=NO)CC2)c2ccc(C)o2)c(C)c1 (centres unmarked) [Cpd. 165, N-[(2,4-dimethylphenyl)(5-methylfuran-2-yl)methyl]-1-[1-(hydroxyimino)-2,3-dihydro-1H-inden-5-yl]cyclopropane-1-carboxamide]
1000 to 10000 | Cc1ccc(C(NC(=O)Cc2ccc3c(c2)CC(=O)N3)c2ccc(C)o2)c(C)c1 (centres unmarked) [Cpd. 29, N-[(2,4-dimethylphenyl)(5-methylfuran-2-yl)methyl]-2-(2-oxo-2,3-dihydro-1H-indol-5-yl)acetamide]
10 to 100 | Cc1ccc(C(NC(=O)C2(c3ccc4c(c3)CN(S(C)(=O)=O)C4)CC2)c2ccc(Cl)o2)c(C)c1 (centres unmarked) [Cpd. 56, N-[(5-chlorofuran-2-yl)(2,4-dimethylphenyl)methyl]-1-(2-methanesulfonyl-2,3-dihydro-1H-isoindol-5-yl)cyclopropane-1-carboxamide]
10 to 100 | Cc1ccc(C(NC(=O)C2(c3ccc4c(c3)CCC4O)CC2)c2ccc(C)o2)c(C)c1 (centres unmarked) [Cpd. 155, N-[(2,4-dimethylphenyl)(5-methylfuran-2-yl)methyl]-1-(1-hydroxy-2,3-dihydro-1H-inden-5-yl)cyclopropane-1-carboxamide]
10 to 100 | Cc1ccc(C(NC(=O)C2(c3ccc4c(c3)OCS(=O)(=O)N4)CC2)c2ccc(C)o2)c(Br)c1 (centres unmarked) [Cpd. 131, N-[(2-bromo-4-methylphenyl)(5-methylfuran-2-yl)methyl]-1-(2,2-dioxo-1,3-dihydro-4,2,1-benzoxathiazin-6-yl)cyclopropane-1-carboxamide]
< 10 | Cc1ccc(C(NC(=O)Cc2ccc3c(c2)CCN3C(=O)C2CC2)c2ccc(C)o2)c(N2CCCCC2)c1 (centres unmarked) [Cpd. 123, 2-(1-cyclopropanecarbonyl-2,3-dihydro-1H-indol-5-yl)-N-{[4-methyl-2-(piperidin-1-yl)phenyl](5-methylfuran-2-yl)methyl}acetamide]
100 to 1000 | Cc1ccc(C(NC(=O)Cc2ccc3c(c2)C(=O)CC3)c2ccc(C)o2)c(N2CCCCC2)c1 (centres unmarked) [Cpd. 67, N-{[4-methyl-2-(piperidin-1-yl)phenyl](5-methylfuran-2-yl)methyl}-2-(3-oxo-2,3-dihydro-1H-inden-5-yl)acetamide]
1000 to 10000 | Cc1ccc(C(NC(=O)C2(c3ccc4c(c3)OCC(=O)N4)CC2)c2ccc(Cl)cc2)c(C)c1 (centres unmarked) [Cpd. 140, N-[(4-chlorophenyl)(2,4-dimethylphenyl)methyl]-1-(3-oxo-3,4-dihydro-2H-1,4-benzoxazin-7-yl)cyclopropane-1-carboxamide]
